Laboratory results as given in PMC7369637, “Inhibition of Resistance-Refractory P. falciparum Kinase PKG Delivers Prophylactic, Blood Stage, and Transmission-Blocking Antiplasmodial Activity” (Cell Chemical Biology, 2020).

Tested on: metabolite levels in Pf trophozoites and schizonts
Experiment: Metabolomics (UHPLC-MS) of treated trophozoites and schizonts
Assay type: cell-based, Plasmodium falciparum
Description: Metabolomics experiments were performed as described elsewhere ([Murithi et al., 2019]). […] Following several washes, metabolites were extracted by 90% methanol containing 0.5 μM ^13C^15N-labelled aspartate as an internal standard. Nitrogen-dried samples were stored at -80°C. Samples were resuspended in high-performance liquid chromatography (HPLC) grade water that contained 1 μM chlorpropamide as an internal standard. They were then analyzed by ultra-high-performance liquid chromatography mass spectrometry UHPLC-MS ([Allman et al., 2016]). Data analysis was performed using the el-MAVEN software and the Metaboanalyst package in R Studio ([Murithi et al., 2019]).

O=C1C(O)=C([C@H]2CC[C@H](c3ccc(Cl)cc3)CC2)C(=O)c2ccccc21 [ATQ, Atovaquone]
Log2 fold change in 2-Hydroxy-2-methylbutanedioic acid level (schizonts): -0.013 | Log2 fold change in 2_3-Diphosphoglyceric acid level (schizonts): -0.049 | Log2 fold change in 3-phosphoglycerate level (schizonts): -0.461 | Log2 fold change in 4-aminobutyrate level (schizonts): 0.163 | Log2 fold change in 4-phosphopantothenate level (schizonts): -0.471 | Log2 fold change in 6-phospho-D-gluconate level (schizonts): -0.038 | Log2 fold change in ADP-D-glucose level (schizonts): 0.078 | Log2 fold change in CDP level (schizonts): -0.939 | Log2 fold change in CMP level (schizonts): -0.776 | Log2 fold change in D-glucosamine-1/6-phosphate level (schizonts): -0.254 | Log2 fold change in D-sedoheptulose-1/7-phosphate level (schizonts): -0.253 | Log2 fold change in DL-Pipecolic Acid level (schizonts): 0.155 | Log2 fold change in DLH level (schizonts): 0.054 | Log2 fold change in DLS level (schizonts): 0.295 | Log2 fold change in FAD level (schizonts): 0.00635 | Log2 fold change in FMN level (schizonts): -0.114 | Log2 fold change in GDP level (schizonts): -0.131 | Log2 fold change in GMP level (schizonts): 0.068 | Log2 fold change in HVDD level (schizonts): 0.015 | Log2 fold change in Hexose level (schizonts): 0.028 | Log2 fold change in IMP level (schizonts): 0.230 | Log2 fold change in N-Acetyl-L-alanine level (schizonts): -0.209 | Log2 fold change in N-acetyl-L-ornithine level (schizonts): 0.067 | Log2 fold change in N-acetyl-glutamate level (schizonts): 0.069 | Log2 fold change in N-acetyl-glutamine level (schizonts): -0.075 | Log2 fold change in N-carbamoyl-L-aspartate level (schizonts): 2.103 | Log2 fold change in NAD+ level (schizonts): -0.089 | Log2 fold change in NADP+ level (schizonts): -0.036 | Log2 fold change in NADPH level (schizonts): 0.265 | Log2 fold change in Octulose 8/1P level (schizonts): -0.088 | Log2 fold change in Octulose Bisphosphate level (schizonts): -0.059 | Log2 fold change in PD level (schizonts): 0.272 | Log2 fold change in PE level (schizonts): 0.257 | Log2 fold change in PEE level (schizonts): 0.222 | Log2 fold change in PEEK level (schizonts): 0.220 | Log2 fold change in PVNF level (schizonts): -0.058 | Log2 fold change in Pyroglutamic acid level (schizonts): -0.420 | Log2 fold change in Ribose-5-phosphate level (schizonts): -0.347 | Log2 fold change in S-adenosyl-L-homocysteine level (schizonts): -0.090 | Log2 fold change in Sedoheptulose bisphosphate level (schizonts): -0.159 | Log2 fold change in UDP level (schizonts): -1.390 | Log2 fold change in UDP-D-glucose level (schizonts): -0.006 | Log2 fold change in UDP-D-glucuronate level (schizonts): -0.062 | Log2 fold change in UDP-N-acetyl-glucosamine level (schizonts): -0.391 | Log2 fold change in UMP level (schizonts): -1.267 | Log2 fold change in a-ketoglutarate level (schizonts): -0.084 | Log2 fold change in acetyl-CoA level (schizonts): -0.850 | Log2 fold change in acetyl-aspartate level (schizonts): -0.355 | Log2 fold change in alanine/sarcosine level (schizonts): -0.266 | Log2 fold change in arginine level (schizonts): -0.203 | Log2 fold change in asparagine level (schizonts): -0.008 | Log2 fold change in aspartate level (schizonts): -0.839 | Log2 fold change in coenzyme A level (schizonts): -0.075 | Log2 fold change in cyclic-AMP level (schizonts): -0.213 | Log2 fold change in cytidine level (schizonts): -0.213 | Log2 fold change in dCDP level (schizonts): -0.147 | Log2 fold change in dCMP level (schizonts): -0.462 | Log2 fold change in dCTP level (schizonts): -0.058 | Log2 fold change in dGDP/ADP level (schizonts): -0.147 | Log2 fold change in dGMP/AMP level (schizonts): -0.148 | Log2 fold change in dTDP level (schizonts): -1.164 | Log2 fold change in dTMP level (schizonts): -1.035 | Log2 fold change in dTTP level (schizonts): -0.979 | Log2 fold change in dihydroorotate level (schizonts): 3.181 | Log2 fold change in folate level (schizonts): -0.209 | Log2 fold change in fructose-1-6-bisphosphate level (schizonts): -0.277 | Log2 fold change in fructose-6-phosphate level (schizonts): -0.212 | Log2 fold change in fumarate level (schizonts): -0.532 | Log2 fold change in glutamate level (schizonts): 0.117 | Log2 fold change in glutamine level (schizonts): -0.138 | Log2 fold change in glutathione disulfide level (schizonts): -0.224 | Log2 fold change in glutathione level (schizonts): -0.005 | Log2 fold change in guanosine level (schizonts): 0.426 | Log2 fold change in histidine level (schizonts): -0.171 | Log2 fold change in hydroxyproline/Aminolevulinate level (schizonts): -0.254 | Log2 fold change in hypoxanthine level (schizonts): -0.139 | Log2 fold change in inosine level (schizonts): -0.136 | Log2 fold change in isoleucine level (schizonts): -0.252 | Log2 fold change in lysine level (schizonts): 0.587 | Log2 fold change in malate level (schizonts): -0.393 | Log2 fold change in maleic acid level (schizonts): -0.266 | Log2 fold change in methionine level (schizonts): -0.241 | Log2 fold change in nicotinate level (schizonts): -0.183 | Log2 fold change in orotate level (schizonts): -1.303 | Log2 fold change in pantothenate level (schizonts): -0.167 | Log2 fold change in phenylalanine level (schizonts): -0.316 | Log2 fold change in phosphoenolpyruvate level (schizonts): -0.095 | Log2 fold change in proline level (schizonts): -0.320 | Log2 fold change in pyruvate level (schizonts): -1.011 | Log2 fold change in ribose level (schizonts): -0.223 | Log2 fold change in ribose-phosphate level (schizonts): -0.313 | Log2 fold change in ribulose-5-phosphate level (schizonts): -0.261 | Log2 fold change in serine level (schizonts): 0.028 | Log2 fold change in sn-glycerol-3-phosphate level (schizonts): -0.021 | Log2 fold change in succinate/Methylmalonic acid level (schizonts): -0.382 | Log2 fold change in thiamine level (schizonts): -0.051 | Log2 fold change in threonine/homoserine level (schizonts): -0.072 | Log2 fold change in tryptophan level (schizonts): -0.203 | Log2 fold change in tyrosine level (schizonts): -0.165 | Log2 fold change in xanthosine level (schizonts): -0.209 | Log2 fold change in xanthosine-5-phosphate level (schizonts): -0.537 | Log2 fold change in 2-Hydroxy-2-methylbutanedioic acid level (trophozoites): -0.127 | Log2 fold change in 2_3-Diphosphoglyceric acid level (trophozoites): -0.381 | Log2 fold change in 3-phosphoglycerate level (trophozoites): -0.429 | Log2 fold change in 4-aminobutyrate level (trophozoites): 0.101 | Log2 fold change in 4-phosphopantothenate level (trophozoites): -0.459 | Log2 fold change in 6-phospho-D-gluconate level (trophozoites): -0.286 | Log2 fold change in ADP-D-glucose level (trophozoites): -0.046 | Log2 fold change in CDP level (trophozoites): -0.509 | Log2 fold change in CMP level (trophozoites): -0.007 | Log2 fold change in D-glucosamine-1/6-phosphate level (trophozoites): -0.044 | Log2 fold change in D-sedoheptulose-1/7-phosphate level (trophozoites): -0.528 | Log2 fold change in DL-Pipecolic Acid level (trophozoites): -0.217 | Log2 fold change in DLH level (trophozoites): 0.019 | Log2 fold change in DLS level (trophozoites): -0.123 | Log2 fold change in FAD level (trophozoites): -0.090 | Log2 fold change in FMN level (trophozoites): -0.124 | Log2 fold change in GDP level (trophozoites): 0.014 | Log2 fold change in GMP level (trophozoites): 0.614 | Log2 fold change in HVDD level (trophozoites): 0.032 | Log2 fold change in Hexose level (trophozoites): -0.376 | Log2 fold change in IMP level (trophozoites): 0.044 | Log2 fold change in N-Acetyl-L-alanine level (trophozoites): -0.316 | Log2 fold change in N-acetyl-L-ornithine level (trophozoites): 0.096 | Log2 fold change in N-acetyl-glutamate level (trophozoites): -0.170 | Log2 fold change in N-acetyl-glutamine level (trophozoites): -0.082 | Log2 fold change in N-carbamoyl-L-aspartate level (trophozoites): 3.058 | Log2 fold change in NAD+ level (trophozoites): -0.186 | Log2 fold change in NADP+ level (trophozoites): -0.065 | Log2 fold change in NADPH level (trophozoites): -0.700 | Log2 fold change in Octulose 8/1P level (trophozoites): -0.033 | Log2 fold change in Octulose Bisphosphate level (trophozoites): -0.267 | Log2 fold change in PD level (trophozoites): 0.177 | Log2 fold change in PE level (trophozoites): 0.343 | Log2 fold change in PEE level (trophozoites): -0.149 | Log2 fold change in PEEK level (trophozoites): 0.046 | Log2 fold change in PVNF level (trophozoites): -0.949 | Log2 fold change in Pyroglutamic acid level (trophozoites): -0.555 | Log2 fold change in Ribose-5-phosphate level (trophozoites): -0.276 | Log2 fold change in S-adenosyl-L-homocysteine level (trophozoites): -0.313 | Log2 fold change in Sedoheptulose bisphosphate level (trophozoites): -0.304 | Log2 fold change in UDP level (trophozoites): -0.826 | Log2 fold change in UDP-D-glucose level (trophozoites): -0.168 | Log2 fold change in UDP-D-glucuronate level (trophozoites): -0.164 | Log2 fold change in UDP-N-acetyl-glucosamine level (trophozoites): -0.499 | Log2 fold change in UMP level (trophozoites): -0.377 | Log2 fold change in a-ketoglutarate level (trophozoites): -0.00422 | Log2 fold change in acetyl-CoA level (trophozoites): -0.783 | Log2 fold change in acetyl-aspartate level (trophozoites): -0.358 | Log2 fold change in alanine/sarcosine level (trophozoites): -0.389 | Log2 fold change in arginine level (trophozoites): -0.197 | Log2 fold change in asparagine level (trophozoites): -0.111 | Log2 fold change in aspartate level (trophozoites): -0.858 | Log2 fold change in coenzyme A level (trophozoites): -0.813 | Log2 fold change in cyclic-AMP level (trophozoites): -0.306 | Log2 fold change in cytidine level (trophozoites): -0.308 | Log2 fold change in dCDP level (trophozoites): 0.078 | Log2 fold change in dCMP level (trophozoites): 0.286 | Log2 fold change in dCTP level (trophozoites): -0.396 | Log2 fold change in dGDP/ADP level (trophozoites): -0.020 | Log2 fold change in dGMP/AMP level (trophozoites): 0.757 | Log2 fold change in dTDP level (trophozoites): -0.522 | Log2 fold change in dTMP level (trophozoites): 0.797 | Log2 fold change in dTTP level (trophozoites): -1.044 | Log2 fold change in dihydroorotate level (trophozoites): 4.182 | Log2 fold change in folate level (trophozoites): -0.409 | Log2 fold change in fructose-1-6-bisphosphate level (trophozoites): -0.330 | Log2 fold change in fructose-6-phosphate level (trophozoites): -0.341 | Log2 fold change in fumarate level (trophozoites): -0.377 | Log2 fold change in glutamate level (trophozoites): 0.025 | Log2 fold change in glutamine level (trophozoites): -0.211 | Log2 fold change in glutathione disulfide level (trophozoites): -0.238 | Log2 fold change in glutathione level (trophozoites): -0.129 | Log2 fold change in guanosine level (trophozoites): -0.368 | Log2 fold change in histidine level (trophozoites): -0.281 | Log2 fold change in hydroxyproline/Aminolevulinate level (trophozoites): -0.316 | Log2 fold change in hypoxanthine level (trophozoites): -0.322 | Log2 fold change in inosine level (trophozoites): -0.490 | Log2 fold change in isoleucine level (trophozoites): -0.515 | Log2 fold change in lysine level (trophozoites): 0.274 | Log2 fold change in malate level (trophozoites): -0.381 | Log2 fold change in maleic acid level (trophozoites): -0.226 | Log2 fold change in methionine level (trophozoites): -0.384 | Log2 fold change in nicotinate level (trophozoites): -0.467 | Log2 fold change in orotate level (trophozoites): 0.364 | Log2 fold change in pantothenate level (trophozoites): -0.383 | Log2 fold change in phenylalanine level (trophozoites): -0.490 | Log2 fold change in phosphoenolpyruvate level (trophozoites): -0.226 | Log2 fold change in proline level (trophozoites): -0.424 | Log2 fold change in pyruvate level (trophozoites): -0.797 | Log2 fold change in ribose level (trophozoites): -0.358 | Log2 fold change in ribose-phosphate level (trophozoites): -0.355 | Log2 fold change in ribulose-5-phosphate level (trophozoites): -0.161 | Log2 fold change in serine level (trophozoites): -0.067 | Log2 fold change in sn-glycerol-3-phosphate level (trophozoites): 0.064 | Log2 fold change in succinate/Methylmalonic acid level (trophozoites): -0.878 | Log2 fold change in thiamine level (trophozoites): -0.352 | Log2 fold change in threonine/homoserine level (trophozoites): -0.156 | Log2 fold change in tryptophan level (trophozoites): -0.225 | Log2 fold change in tyrosine level (trophozoites): -0.394 | Log2 fold change in xanthosine level (trophozoites): -0.306 | Log2 fold change in xanthosine-5-phosphate level (trophozoites): -0.737
